Legend:
Chlamydia pneumoniae = assay: Clinical trial in CHD patients: serum anti-Chlamydia IgG (IgG-ELISA); type: in vivo, human; settings: for Chlamydia pneumoniae load in IgG-ELISA, ELISA reading: below 0.300-0.400 is considered negative
Description: (§1) 20 Coronary Heart Disease (CHD) patients who were positive for anti-Chlamydia IgG and hypercholesterolaemia were identified. These patients were randomised in 4 groups of 5 patients, and each of them received daily either in: • 1st group—7 mg of lycopene supplement (in 70 mg of tomato oleoresin), or • 2nd group—[…] of WP, or • 3rd group—mechanical mixture of 7 mg of lycopene (in 70 mg of tomato oleoresin), and 70 mg of WP, or • 4th group—WP-Lycosome comprising of 7 mg of lycopene (in 70 mg of tomato oleoresin) and 70 mg of WP.
(§2) Serum anti-Chlamydia IgG and total serum cholesterol were measured after 4 weeks.

[1] = Clinical trial in CHD patients: total serum cholesterol; type: in vivo, human
Description: as §1, §2

clinical = type: in vivo, human
Description: as §1

[2] = Pharmacokinetic study on volunteers: unmodified trans-resveratrol in blood; type: in vivo; settings: human, serum, po, 100 mg, 100 mg trans-Resveratol oral, individual volunteers ID 1, 2, read-out: AUC for 24 hours
Description: The group of 5 volunteers comprised of 2 female and 3 male clinically healthy Caucasian persons, age between 23 and 35 years. They were asked, before commencing this experiment, to go for 3-4 days “wash-out”, when consumption of any grape, wine, peanut, chocolate and other products which might contain them.
Blood samples were taken from their median cubital or cephalic veins at the baseline point. […]
After taking blood its serum was separated, aliquoted and stored at −80° C. for further testing.

[3] = difference after 4 weeks of administration

Structure (SMILES) | number of sero-positive patients (Chlamydia pneumoniae; 0 w) | Chlamydia pneumoniae load in IgG-ELISA, ELISA reading (Chlamydia pneumoniae; 0 w, CHD patients) | number of sero-positive patients (Chlamydia pneumoniae; 1 w) | number of sero-positive patients (Chlamydia pneumoniae; 2 w) | number of sero-positive patients (Chlamydia pneumoniae; 3 w) | time by which all patients were sero-negative / anti-Chlamydia IgG cleared from serum (Chlamydia pneumoniae; 4-week trial) | number of sero-positive patients (Chlamydia pneumoniae; 4 w) | Chlamydia pneumoniae load in IgG-ELISA, ELISA reading (Chlamydia pneumoniae; 4 w of daily administration) | effect on level of Chlamydia infection (specific IgG), in words (Chlamydia pneumoniae; CHD patients, daily for 4 weeks) | Total serum Cholesterol ([1]; 0 w) [mmol/L] | Total serum Cholesterol ([1]; 4 w) [mmol/L] | reduction of serum cholesterol ([1]; after 4 weeks) [mmol/L] | Total serum Cholesterol, Δ [1, 3] [mmol/L] | Total serum Lycopene, Δ (clinical; [3]) | concentration at 0 w (clinical; human, in vivo) [ng/mL] | concentration at 4 w (clinical; human, in vivo) [ng/mL] | AUC [2] [ng·h/mL]
CC(C)=CCC/C(C)=C/C=C/C(C)=C/C=C/C(C)=C/C=C/C=C(C)/C=C/C=C(C)/C=C/C=C(\C)CCC=C(C)C [GA Lycopene, lycopene] | 10 | 0.997 ± 0.098 | (10) | (4) | (2) | in the last week of the trial | 0 | 0.288 ± 0.043 | some ability to reduce Chlamydia infection | 5.4 ± 0.23 | 4.7 ± 0.21 | 0.7 | -0.7 | +116 ng/ml | 179 ± 21 | 295 ± 23 | 
Oc1ccc(/C=C/c2cc(O)cc(O)c2)cc1 [Resveratrol, 3,5,4′-trihydroxy-trans-stilbene] |  |  |  |  |  |  |  |  |  |  |  |  |  |  |  |  | 432

Reference: US9737602B2, “Carotenoid particles and uses thereof” (IP SCIENCE LIMITED, priority 2011, dated 2017)
